Experimental data reported in patent US20250002843A1, “DERIVATION OF NAÏVE BOVINE EMBRYONIC STEM CELLS” (The Semex Alliance, priority 2021, published 2025).

Tested on: ZP-free bovine embryo
Experiment: Bovine embryo attachment and outgrowth derivation (attachment, TE growth, ICM growth) in culture media
Format: cell-based
Conditions: for effect on derivation efficiency on substitution in t2iLGöY media: bovine IL-6 10 ng/ml for human LIF, CGP77675 2 uM for PD0325901
Protocol: The protocol for coating was as follows: • 1. 4 drops of 50 μL of coating solution: 0.1% gelatin or different concentrations of EHS-ECM, provided as a 100× concentrated solution, were applied onto Nunc surface 35 mm^2 cell culture dish (see FIG. 1). • 2. Coated substrates were incubated in a humidified 5% CO2 incubator at 38.5° C. for 1 hour. • 3. After incubation, excess coating solution was removed, 50 uL of cell culture media was applied to the coated area, covered with 4 mL of mineral oil, and 50 ul of additional media was added into each drop. • 4. Media was allowed to equilibrate in a humidified 5% O2, 5% CO2 incubator at 38.5° C. for 2 hours. • 5. After ZP removal and adaptation of embryos, 1 embryo was placed into 1 micro culture drop to start outgrowth derivation. • 6. First attachment rate was determined at 48 hours of outgrowth culture and first media change was done right after first attachment determination. • 7. Attachment rate and outgrowth rate were evaluated every day and media were changed right after daily evaluation.
The protocol for generating LbL ECM coated substrate was as follows: • 1. 40 ul of 0.1% Gelatin type A (diluted with DMEM/F12 basal medium) was applied to the surface of a Nunc 35 mm^2 cell culture dish to make small drops. • 2. The dish was incubated in a humidified 5% CO2 incubator at 38.5° C. for 1 hour. • 3. After incubation, the gelatin solution was removed and 50 ul of DPBS with Ca^2+ and Mg^2+ was added to wash excess gelatin from drops, followed by removal using aspiration. The washing step was repeated 2 times more. • 4. 50 ul of 1×EHS-ECM was applied to the gelatin coated area and incubated in a humidified 5% CO2 incubator at 38.5° C. for 1 hour. • 5. After incubation, EHS-ECM solution was removed, and 50 ul of media was applied; drops were covered with 4 ml of mineral oil, and 50 ul of additional media was added into each drop. • 6. The media was allowed to equilibrate in 5% CO2 incubator for 2 hours.
• 1. Thawing media and outgrowth media was mixed at a 1:1 ratio. • 2. After post-thaw recovery, embryos were washed twice in adaptation media (1:1 ratio of thawing media (e.g. embryo handling media and outgrowth media (e.g. DMEM))) before being put in the adaptation drop in the Dish #1 (FIG. 10). • 4. After 1 hour of adaptation, embryos were then washed four times by transferring to washing drops (outgrowth media) in the Dish #2. • 5. Embryos were then moved to the outgrowth media (DMEM) for plating. • 6. Adapted embryos were then plated into LbL coated micro drop.
FBS (10091, Gibco™), Knock-out Serum Replacement (10828-10, Gibco™), Serum Replacement (S0638, Sigma), B27 supplement (17504-044, Gibco™), and N2 supplement (17502-048, Gibco™) were used for this test. Traditional mouse 2iL media (DMEM/F12+1% MEM non-essential amino acid+2 mM Glutamax+100 µM beta-mercaptoethanol+100 IU penicillin/streptomycin+growth factors/inhibitors including 3 µM CHIR99021, 1 μM PD0325901 and 100 ng/ml LIF) was used as a basal medium for the serum tests of 10% FBS and 20% KOSR, and 1×-, 2×-SR groups. t2iLGöY media (1:1 mixture of DMEM/F12 and neurobasal medium+1% MEM non-essential amino acid+2 mM Glutamax+50 μg/ml BSA, fraction V+100 μM beta-mercaptoethanol+100 IU penicillin/streptomycin+growth factors/inhibitors including 1 μM CHIR99021, 1 μM PD0325901, 10 μM Y27632, 2.5 μM Gö6983 and 10 ng/ml LIF) was used for the testing of N2B27 group. […]

COc1cccc(-c2cn(-c3ccc(CCN4CCC(O)CC4)cc3)c3ncnc(N)c23)c1 [CGP77675]
effect on derivation efficiency on substitution in t2iLGöY media: negative effect

COc1ccc2c(c1)c(C1=C(c3c[nH]c4ccccc34)C(=O)NC1=O)cn2CCCN(C)C [Gö6983]
derivation efficiency on addition in t2iLGoY (side-by-side with 2i, 2iLFk and NHSM media): improved

O=C(NOC[C@H](O)CO)c1ccc(F)c(F)c1Nc1ccc(I)cc1F [PD0325901]
derivation efficiency when withdrawn from media (MEK inhibitor withdrawn, embryo cavity formation): decreased

insulin
hypoblast formation during outgrowth culture (addition of 20 μg/ml to the medium): not observed

B1: bovine IL-6: bovine IL-6, a member of the LIF superfamily (protein, UniProt P26892 30-208, looked up)
Interleukin-6: GPLGEDFKNDTTPGRLLLTTPEKTEALIKRMVDKISAMRKEICEKNDECESSKETLAENKLNLPKMEEKDGCFQSGFNQAICLIRTTAGLLEYQIYLDYLQNEYEGNQENVRDLRKNIRTLIQILKQKIADLITTPATNTDLLEKMQSSNEWVKNAKIILILRNLENFLQFSLRAIRMK
effect on derivation efficiency on substitution in t2iLGöY media: negative effect
